Source: patent US8877802B2 (priority 2005, dated 2014)

Assays:
DAT-KO mice [1] = experiment: Striatal tissue DA by HPLC-EC after αMT; type: in vivo; conditions: αMT 250 mg/kg IP
Method: (§1) Neurochemical assessments. Striatal tissue contents of DA and frontal cortical tissue levels of NE were assessed using HPLC-EC (high performance liquid chromatography with electrochemical detection) as described. In vivo microdialysis measurements of striatal extracellular DA levels in freely moving mice were performed at least 24 h after implantation of a microdialysis probe as described previously. Dialysate samples were assayed for DA using HPLC-EC.

WT mice [2] = experiment: Striatal tissue DA by HPLC-EC after αMT; type: in vivo; conditions: αMT 250 mg/kg IP; 4 h
Method: as §1

DAT-KO mice [3] = experiment: Frontal cortex tissue NE by HPLC-EC after αMT; type: in vivo; conditions: αMT 250 mg/kg IP; 8 h after treatment
Method: as §1

WT mice [4] = experiment: Frontal cortex tissue NE by HPLC-EC after αMT; type: in vivo; conditions: αMT 250 mg/kg IP; 8 h after treatment
Method: as §1

DAT-KO mice [5] = experiment: In vivo microdialysis of striatal extracellular DA; conditions: αMT 250 mg/kg IP; freely moving DAT-KO mice
Method: as §1

WT mice [6] = experiment: In vivo microdialysis of striatal extracellular DA; conditions: αMT 250 mg/kg IP; freely moving WT mice
Method: as §1

DAT-KO mice [7] = conditions: 100 mg/kg IP once every 3 d for 40 wk; cited from earlier work
DAT-KO mice [8] = experiment: Locomotor activity after αMT
WT mice [9] = experiment: Locomotor activity after αMT; conditions: αMT 250 mg/kg IP
DAT-KO mice [10] = experiment: Behavioral tests after αMT (akinesia, catalepsy, grasping, bracing, tremor, ptosis, righting reflex); conditions: αMT 250 mg/kg IP

## CC(N)(Cc1ccc(O)cc1)C(=O)O (stereo not drawn) [αMT, α-methyl-p-tyrosine]
DAT-KO mice [1]
  duration of the striatal DA depletion: up to 16 h
DAT-KO mice [1]; 15 min
  striatal DA remaining after depletion: 5 % of control levels in DAT-KO mice
DAT-KO mice [1]; DAT-KO mice, expressed against WT control
  striatal DA remaining after depletion: less than 0.2 % of WT control levels
WT mice [2]
  depletion of striatal tissue DA: 60%
DAT-KO mice [3]
  NE depletion in frontal cortex: about 60%
WT mice [4]
  NE depletion in frontal cortex: about 60%
DAT-KO mice [5]
  effect on extracellular DA levels in striatum: essentially eliminated extracellular DA levels
WT mice [6]
  effect on extracellular DA levels in striatum: only a partial decrease
DAT-KO mice [7]
  consequences of chronic treatment: showed no negative consequences
DAT-KO mice [8]; after αMT 250 mg/kg IP
  time to restoration of locomotor activity: 16 to 24 h
DAT-KO mice [8]; αMT 250 mg/kg IP
  total distance traveled for 210 min after drug administration: 448±75 cm/210 min
WT mice [9]
  total distance traveled for 210 min after drug administration: 505±98 cm/210 min
DAT-KO mice [10]
  akinesia, catalepsy, grasping, bracing, tremor and ptosis tests: induced profound alterations
  righting reflex: did not affect the righting reflex
